Assay results as given in ChEMBL document CHEMBL4007434, “Indazole-Based Covalent Inhibitors To Target Drug-Resistant Epidermal Growth Factor Receptor” (J Med Chem, 2017).
Activity calls are given as the source filed them. The rule behind the calls is not given here.

Key:
[1] = target: Tyrosine-protein kinase Blk (Homo sapiens) (UniProt P51451); assay: Inhibition of full-length recombinant human His-tagged cytoplasmic BLK expressed in baculovirus expression system at 1 uM by Z'-LYTE assay
[2] = target: Receptor tyrosine-protein kinase erbB-2 (Homo sapiens) (UniProt P04626); assay: Inhibition of ERBB2 (unknown origin) at 1 uM by Z'-LYTE assay
Receptor tyrosine-protein kinase erbB-2 (Homo sapiens), sequence (P04626 whole entry): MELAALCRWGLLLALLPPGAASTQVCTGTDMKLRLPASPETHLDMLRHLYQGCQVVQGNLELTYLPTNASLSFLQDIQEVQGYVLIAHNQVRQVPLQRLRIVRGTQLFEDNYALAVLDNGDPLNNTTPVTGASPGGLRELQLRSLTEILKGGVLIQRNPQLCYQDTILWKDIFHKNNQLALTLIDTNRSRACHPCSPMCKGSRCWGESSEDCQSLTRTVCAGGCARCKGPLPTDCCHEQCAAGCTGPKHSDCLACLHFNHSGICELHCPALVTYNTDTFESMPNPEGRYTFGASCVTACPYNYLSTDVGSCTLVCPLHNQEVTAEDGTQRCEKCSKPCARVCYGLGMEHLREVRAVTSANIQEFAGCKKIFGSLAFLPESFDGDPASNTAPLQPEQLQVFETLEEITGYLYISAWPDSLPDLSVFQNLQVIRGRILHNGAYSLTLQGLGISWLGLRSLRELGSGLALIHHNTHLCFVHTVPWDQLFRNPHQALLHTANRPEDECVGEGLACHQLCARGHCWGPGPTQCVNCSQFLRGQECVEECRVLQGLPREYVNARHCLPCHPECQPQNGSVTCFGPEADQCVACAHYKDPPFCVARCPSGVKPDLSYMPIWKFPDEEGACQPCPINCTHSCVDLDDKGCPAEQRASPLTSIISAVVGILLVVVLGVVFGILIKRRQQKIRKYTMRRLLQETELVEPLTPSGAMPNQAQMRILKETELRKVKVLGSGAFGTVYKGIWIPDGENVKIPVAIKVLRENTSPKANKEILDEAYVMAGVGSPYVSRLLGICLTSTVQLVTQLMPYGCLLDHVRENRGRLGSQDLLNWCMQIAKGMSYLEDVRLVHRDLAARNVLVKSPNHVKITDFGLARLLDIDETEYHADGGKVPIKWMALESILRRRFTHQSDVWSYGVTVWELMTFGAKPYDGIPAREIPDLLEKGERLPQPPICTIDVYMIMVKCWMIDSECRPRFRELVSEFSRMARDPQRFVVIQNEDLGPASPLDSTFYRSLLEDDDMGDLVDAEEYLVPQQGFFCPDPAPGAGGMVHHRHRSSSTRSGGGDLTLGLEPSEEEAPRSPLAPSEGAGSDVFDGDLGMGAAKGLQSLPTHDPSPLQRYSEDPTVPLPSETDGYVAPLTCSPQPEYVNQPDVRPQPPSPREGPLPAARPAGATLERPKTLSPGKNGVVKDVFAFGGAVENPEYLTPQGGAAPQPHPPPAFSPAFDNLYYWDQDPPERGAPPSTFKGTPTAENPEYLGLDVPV

[3] = system: Epidermal growth factor receptor (Homo sapiens), P00533 [L858R]
[4] = system: Epidermal growth factor receptor (Homo sapiens), P00533 [L858R,T790M]; conditions: 100 nM
[5] = target: T1, Epidermal growth factor receptor (Homo sapiens, UniProt P00533); assay: Ratio of Kinact to Ki for reversible inhibition of wild-type human N-terminal GST-tagged EGFR cytoplasmic domain (669 to 1210 end amino acid residues) expressed in baculovirus expression system
[6] = system: Epidermal growth factor receptor (Homo sapiens), P00533 [L861Q]; conditions: 1 uM
[7] = system: Epidermal growth factor receptor (Homo sapiens), P00533 [L858R,T790M]; conditions: 100 nM; remark: listed apart in the source
[8] = target: T2, Tyrosine-protein kinase JAK3 (Homo sapiens) (UniProt P52333); assay: Inhibition of recombinant human GST-tagged cytoplasmic JAK3 (781 to 1124 amino acid residues) catalytic domain expressed in baculovirus expression system at 1 uM by Z'-LYTE assay
T2 sequence (whole entry): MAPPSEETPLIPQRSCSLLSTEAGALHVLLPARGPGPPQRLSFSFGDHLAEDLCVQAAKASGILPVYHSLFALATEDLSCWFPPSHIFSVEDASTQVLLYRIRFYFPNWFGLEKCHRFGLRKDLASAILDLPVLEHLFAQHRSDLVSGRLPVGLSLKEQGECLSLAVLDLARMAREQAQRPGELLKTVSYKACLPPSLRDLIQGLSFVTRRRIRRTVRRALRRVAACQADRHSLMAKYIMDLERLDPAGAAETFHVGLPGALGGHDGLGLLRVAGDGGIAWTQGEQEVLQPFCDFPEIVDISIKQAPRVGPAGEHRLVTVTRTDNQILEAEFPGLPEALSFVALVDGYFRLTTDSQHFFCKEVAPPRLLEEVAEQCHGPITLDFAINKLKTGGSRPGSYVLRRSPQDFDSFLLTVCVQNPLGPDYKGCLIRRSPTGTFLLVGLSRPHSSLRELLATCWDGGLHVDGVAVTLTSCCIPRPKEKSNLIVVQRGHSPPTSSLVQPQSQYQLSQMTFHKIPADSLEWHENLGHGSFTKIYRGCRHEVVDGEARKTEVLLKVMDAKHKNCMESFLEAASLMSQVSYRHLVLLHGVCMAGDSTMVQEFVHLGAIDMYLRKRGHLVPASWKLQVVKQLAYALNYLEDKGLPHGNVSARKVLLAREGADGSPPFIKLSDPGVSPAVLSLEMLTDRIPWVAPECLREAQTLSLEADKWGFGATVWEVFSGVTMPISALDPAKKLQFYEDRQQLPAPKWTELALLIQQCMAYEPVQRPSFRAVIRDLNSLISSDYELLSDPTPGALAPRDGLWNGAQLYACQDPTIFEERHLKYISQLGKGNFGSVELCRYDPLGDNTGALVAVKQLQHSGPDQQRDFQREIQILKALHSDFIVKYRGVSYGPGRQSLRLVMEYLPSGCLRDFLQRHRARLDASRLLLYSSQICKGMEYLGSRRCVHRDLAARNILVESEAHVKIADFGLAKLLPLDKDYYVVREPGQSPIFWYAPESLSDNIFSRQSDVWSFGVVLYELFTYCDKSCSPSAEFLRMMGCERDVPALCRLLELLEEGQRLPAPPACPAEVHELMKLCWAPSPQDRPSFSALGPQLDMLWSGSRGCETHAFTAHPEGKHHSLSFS

Liver [9] = assay: Stability in mouse liver microsomes at 3 uM up to 50 mins by LCMS analysis; type: ADME, microsome
[10] = Stability in mouse plasma assessed as compound remaining at 5 uM after 1 hr by LCMS analysis; type: ADME, cell-free; conditions: read-out: Stability
Liver [11] = assay: Stability in human liver microsomes at 3 uM up to 50 mins by LCMS analysis; type: ADME, microsome
[12] = target: T3, Epidermal growth factor receptor (Homo sapiens, UniProt P00533, L858R); assay: Reversible inhibition of human N-terminal GST-tagged EGFR L858R mutant cytoplasmic domain (669 to 1210 end amino acid residues) expressed in baculovirus expression system using TK peptide substrate preincubated for 2 to 90 mins followed by 6-fold dilution
[13] = target: T3, Epidermal growth factor receptor
[14] = system: Epidermal growth factor receptor (Homo sapiens), P00533 [L858R,T790M]; conditions: 100 nM; remark: listed apart in the source
[15] = system: Epidermal growth factor receptor (Homo sapiens), P00533 [L858R,T790M]; conditions: 1 uM
[16] = system: Epidermal growth factor receptor (Homo sapiens), P00533 [T790M]; conditions: 1 uM
[17] = target: T1, Epidermal growth factor receptor; assay: Reversible inhibition of wild-type human N-terminal GST-tagged EGFR cytoplasmic domain (669 to 1210 end amino acid residues) expressed in baculovirus expression system using TK peptide substrate preincubated for 2 to 90 mins followed by 6-fold dilution
[18] = target: Tyrosine-protein kinase BTK (Homo sapiens) (UniProt Q06187); assay: Inhibition of full-length recombinant human His-tagged cytoplasmic BTK expressed in baculovirus expression system at 1 uM by Z'-LYTE assay
Tyrosine-protein kinase BTK (Homo sapiens), sequence (Q06187 whole entry, the tested form may be a part): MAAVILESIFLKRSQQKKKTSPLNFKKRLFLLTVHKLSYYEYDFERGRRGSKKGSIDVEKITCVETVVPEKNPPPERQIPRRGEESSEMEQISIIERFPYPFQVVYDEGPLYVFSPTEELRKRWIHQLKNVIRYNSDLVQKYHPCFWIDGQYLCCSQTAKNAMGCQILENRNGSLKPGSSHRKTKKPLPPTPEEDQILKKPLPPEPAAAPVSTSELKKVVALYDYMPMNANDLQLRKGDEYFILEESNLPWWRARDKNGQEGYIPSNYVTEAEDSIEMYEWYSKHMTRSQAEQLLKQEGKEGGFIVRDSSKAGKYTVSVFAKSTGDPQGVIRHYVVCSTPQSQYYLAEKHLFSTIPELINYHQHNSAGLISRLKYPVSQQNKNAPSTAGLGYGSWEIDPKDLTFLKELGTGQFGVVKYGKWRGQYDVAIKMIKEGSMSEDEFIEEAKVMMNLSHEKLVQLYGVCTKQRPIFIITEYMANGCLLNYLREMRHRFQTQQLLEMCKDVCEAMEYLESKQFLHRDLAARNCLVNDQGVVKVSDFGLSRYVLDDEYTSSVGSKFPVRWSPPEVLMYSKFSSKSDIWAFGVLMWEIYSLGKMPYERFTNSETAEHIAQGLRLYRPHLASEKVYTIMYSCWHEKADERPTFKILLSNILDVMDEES

[19] = target: Epidermal growth factor receptor (Homo sapiens, UniProt P00533, L858R/T790M); assay: Reversible inhibition of human N-terminal GST-tagged EGFR L858R/T790M double mutant cytoplasmic domain (669 to 1210 end amino acid residues) expressed in baculovirus expression system using TK peptide substrate preincubated for 2 to 90 mins followed by 6-fold dilution
[20] = system: Epidermal growth factor receptor (Homo sapiens), P00533 [T790M]; assay: Binding affinity to EGFR T790M mutant (unknown origin) assessed as covalent adduct formation at 100 uM after 1 hr by ESI-MS analysis
[21] = target: Receptor tyrosine-protein kinase erbB-4 (Homo sapiens) (UniProt Q15303); assay: Inhibition of recombinant truncated human His/IgG1 Fc-tagged ERBB4 expressed in mammalian expression system at 1 uM by Z'-LYTE assay
Receptor tyrosine-protein kinase erbB-4 (Homo sapiens), sequence (Q15303 whole entry, the tested form may be a part): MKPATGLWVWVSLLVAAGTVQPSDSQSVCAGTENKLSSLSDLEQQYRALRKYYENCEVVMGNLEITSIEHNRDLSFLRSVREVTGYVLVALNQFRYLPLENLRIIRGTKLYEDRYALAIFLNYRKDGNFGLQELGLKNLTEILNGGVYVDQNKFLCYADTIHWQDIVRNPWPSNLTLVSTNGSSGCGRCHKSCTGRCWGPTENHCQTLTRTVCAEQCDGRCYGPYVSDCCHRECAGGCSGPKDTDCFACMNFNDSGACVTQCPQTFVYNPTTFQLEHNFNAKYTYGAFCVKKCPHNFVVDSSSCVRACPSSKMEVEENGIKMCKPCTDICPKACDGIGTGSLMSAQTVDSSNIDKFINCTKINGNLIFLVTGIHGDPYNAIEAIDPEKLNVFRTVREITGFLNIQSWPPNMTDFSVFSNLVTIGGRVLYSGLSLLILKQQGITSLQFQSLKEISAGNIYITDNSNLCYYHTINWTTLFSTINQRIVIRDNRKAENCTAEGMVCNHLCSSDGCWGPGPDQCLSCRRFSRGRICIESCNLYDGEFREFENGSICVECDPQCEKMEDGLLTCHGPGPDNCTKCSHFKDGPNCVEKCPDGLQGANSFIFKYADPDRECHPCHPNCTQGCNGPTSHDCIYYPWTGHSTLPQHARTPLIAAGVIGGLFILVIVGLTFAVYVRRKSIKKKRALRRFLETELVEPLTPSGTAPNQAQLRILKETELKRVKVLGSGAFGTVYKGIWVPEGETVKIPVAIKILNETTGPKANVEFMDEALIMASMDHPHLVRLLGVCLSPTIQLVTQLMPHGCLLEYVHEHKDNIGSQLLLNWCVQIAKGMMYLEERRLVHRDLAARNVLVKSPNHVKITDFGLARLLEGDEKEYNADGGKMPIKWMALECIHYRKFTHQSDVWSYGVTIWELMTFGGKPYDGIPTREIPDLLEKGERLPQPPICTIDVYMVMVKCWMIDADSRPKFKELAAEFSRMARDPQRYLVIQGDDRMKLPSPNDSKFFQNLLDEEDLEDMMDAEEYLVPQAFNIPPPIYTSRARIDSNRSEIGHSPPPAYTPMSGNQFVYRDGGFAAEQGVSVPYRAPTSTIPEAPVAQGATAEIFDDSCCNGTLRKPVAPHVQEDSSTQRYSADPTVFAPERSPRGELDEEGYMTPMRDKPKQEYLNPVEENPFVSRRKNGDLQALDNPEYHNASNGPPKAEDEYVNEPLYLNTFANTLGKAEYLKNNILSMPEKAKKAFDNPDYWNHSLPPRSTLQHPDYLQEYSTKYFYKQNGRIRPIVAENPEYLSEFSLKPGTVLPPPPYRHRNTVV

[22] = target: T1, Epidermal growth factor receptor; assay: Reversible inhibition of wild-type human N-terminal GST-tagged EGFR cytoplasmic domain (669 to 1210 end amino acid residues) expressed in baculovirus expression system using TK peptide substrate assessed as inactivation constant preincubated for 2 to 90 mins followed by 6-fold dilution
[23] = system: Epidermal growth factor receptor (Homo sapiens), P00533 [L858R,T790M,C797S]; assay: Inhibition of EGFR L858R/T790M/C797S triple mutant (unknown origin) by HTRF assay

Tyrosine-protein kinase Blk (Homo sapiens), sequence (P51451 2-505 limits assumed): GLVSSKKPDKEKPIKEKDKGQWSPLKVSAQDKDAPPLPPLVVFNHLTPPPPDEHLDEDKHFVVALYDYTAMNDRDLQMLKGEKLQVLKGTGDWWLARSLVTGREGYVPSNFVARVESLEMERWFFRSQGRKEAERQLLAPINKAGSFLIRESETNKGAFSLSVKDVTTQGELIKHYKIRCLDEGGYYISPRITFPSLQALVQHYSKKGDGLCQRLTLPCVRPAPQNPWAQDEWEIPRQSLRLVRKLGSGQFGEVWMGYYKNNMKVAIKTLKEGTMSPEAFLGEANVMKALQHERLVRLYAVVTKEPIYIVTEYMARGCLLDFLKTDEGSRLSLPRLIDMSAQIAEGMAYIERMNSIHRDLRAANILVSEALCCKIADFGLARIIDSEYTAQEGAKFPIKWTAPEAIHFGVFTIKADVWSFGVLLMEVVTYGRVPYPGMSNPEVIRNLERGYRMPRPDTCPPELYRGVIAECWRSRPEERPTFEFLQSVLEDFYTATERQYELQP

C=CC(=O)Nc1cc(Nc2n[nH]c3cc(Nc4cccc(F)c4)ccc23)c(OC)cc1N(C)CCN(C)C
inhibition [1]: > 85% | inhibition [2]: Active | Kinact [3]: 0.09 min⁻¹ | inhibition [4]: Active | kinact/KI [5]: 470000 M⁻¹ s⁻¹ | inhibition [6]: > 95% | inhibition [7]: Active | inhibition [8]: > 85% | Stability (Liver [9]): Stable | remaining at 1 h, 5 µM [10]: > 90% | Stability (Liver [11]): Stable | Ki [12]: 3.9 nM | IC50 [13]: < 1 nM | inhibition [14]: Active | inhibition [15]: > 95% | inhibition [16]: > 95% | Ki [17]: 5.1 nM | inhibition [18]: > 85% | Ki [19]: 7.4 nM | Activity [20]: Active | inhibition [21]: Active | kinact [22]: 0.00233 s⁻¹ | inhibition [23]: inactive
